Active and inactive are the calls of the source.
Tests used:
[1] = P. falciparum Dd2 growth inhibitors, dose response, SYBR Green, cherry-picked samples (AID 1159567); format: functional, cell-based
[2] = toxicity to human hepatoma HepG2 cells – cell-based, cherry-picked samples, cytotoxicity control, dose response (AID 1159577); format: functional
Protein Tat = molecular target: T1, Protein Tat (Human immunodeficiency virus type 1 group M subtype B (isolate HXB2)(HIV-1), UniProt P04608); format: functional;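 further: tat binding to TAR RNA read out by fluorescence polarization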
T1 sequence (P04608 whole entry): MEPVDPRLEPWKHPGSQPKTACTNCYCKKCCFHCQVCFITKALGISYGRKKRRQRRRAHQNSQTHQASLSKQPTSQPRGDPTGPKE

[3] = molecular target: T2, Histone-lysine N-methyltransferase NSD2 (Homo sapiens, UniProt O96028); format: biochemical
T2 sequence (O96028 whole entry): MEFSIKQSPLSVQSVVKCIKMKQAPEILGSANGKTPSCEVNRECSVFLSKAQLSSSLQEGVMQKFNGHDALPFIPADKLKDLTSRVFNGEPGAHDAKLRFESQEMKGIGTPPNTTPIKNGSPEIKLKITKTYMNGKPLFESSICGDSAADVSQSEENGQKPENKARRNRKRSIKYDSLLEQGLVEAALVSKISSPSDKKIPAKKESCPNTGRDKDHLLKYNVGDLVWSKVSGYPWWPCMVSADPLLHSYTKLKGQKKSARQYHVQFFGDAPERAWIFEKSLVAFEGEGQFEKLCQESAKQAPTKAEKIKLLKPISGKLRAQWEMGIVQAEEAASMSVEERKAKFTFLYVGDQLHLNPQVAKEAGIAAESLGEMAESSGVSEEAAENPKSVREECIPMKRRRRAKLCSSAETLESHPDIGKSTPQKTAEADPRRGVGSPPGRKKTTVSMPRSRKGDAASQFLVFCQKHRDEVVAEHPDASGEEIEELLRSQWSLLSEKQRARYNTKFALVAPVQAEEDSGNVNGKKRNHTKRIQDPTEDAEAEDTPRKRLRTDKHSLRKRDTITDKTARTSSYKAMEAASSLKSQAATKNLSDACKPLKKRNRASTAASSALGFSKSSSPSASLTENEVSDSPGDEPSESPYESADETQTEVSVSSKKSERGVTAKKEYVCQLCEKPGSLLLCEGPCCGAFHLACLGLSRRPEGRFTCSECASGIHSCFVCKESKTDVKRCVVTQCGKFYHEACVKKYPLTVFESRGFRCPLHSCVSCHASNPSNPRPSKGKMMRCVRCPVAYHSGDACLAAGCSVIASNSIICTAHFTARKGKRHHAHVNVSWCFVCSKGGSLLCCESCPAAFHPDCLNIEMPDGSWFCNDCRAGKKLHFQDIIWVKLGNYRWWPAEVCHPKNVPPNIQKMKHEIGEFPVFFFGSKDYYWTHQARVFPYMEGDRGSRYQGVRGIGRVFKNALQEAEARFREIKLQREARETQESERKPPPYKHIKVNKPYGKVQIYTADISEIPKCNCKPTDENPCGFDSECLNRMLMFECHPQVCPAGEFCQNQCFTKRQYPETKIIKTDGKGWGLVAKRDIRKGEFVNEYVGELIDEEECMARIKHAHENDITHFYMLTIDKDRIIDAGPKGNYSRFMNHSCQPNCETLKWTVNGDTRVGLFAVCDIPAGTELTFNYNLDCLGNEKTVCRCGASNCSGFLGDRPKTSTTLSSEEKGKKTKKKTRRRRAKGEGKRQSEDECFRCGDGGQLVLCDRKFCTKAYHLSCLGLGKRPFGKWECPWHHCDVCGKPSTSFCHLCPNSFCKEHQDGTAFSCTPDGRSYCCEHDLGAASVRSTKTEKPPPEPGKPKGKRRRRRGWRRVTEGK

[4] = OVCAR8 cell viability loss – plate reader, dry powder samples, PAX8 project, dose response (AID 743197); format: functional, cell-based; conditions: OVCAR-8
Paired box protein Pax-8 = Paired box protein Pax-8 (Homo sapiens, UniProt Q06710); assay: PAX8 transcriptional activity inhibition in RMG-I – RMG-I cells, luciferase, cherry-pick, dose response (AID 687027); format: functional, cell-based;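 further: luciferase reporter driven by Pax8 target thyroperoxidase promoter measured by SteadyGlo luminescence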
[5] = molecular target: Eukaryotic translation initiation factor 4E (Mus musculus, UniProt P63073); assay: blockers of eIF4G binding by eIF4E – biochemical, TR-FRET, dose response (AID 855); format: functional;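 further: potency for disrupting eIF4E binding to eIF4GI seen as loss of FRET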
[6] = intracellular Trypanosoma cruzi inhibitors in host cells – cell-based, plate reader, cherry-pick samples, set 3, dose response (AID 651818); format: functional;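 further: compounds incubated with infected cells for about four days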
[7] = growth inhibition of PfATP4-mutant resistant parasites – NITD609-resistant line, SYBR Green, dry powder, dose response (AID 1159571); format: functional, cell-based;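 further: parasites synchronized at ring stage by sorbitol before testing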
[8] = Dd2 malaria parasite growth inhibition potency – SYBR Green, dry powder samples, dose response (AID 1159566); format: functional, cell-based;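 further: potency for growth inhibition with lower SYBR green DNA signal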
[9] = growth inhibition of yeast DHODH-expressing 3D7 parasites – SYBR Green, dry powder samples, dose response (AID 1159570); format: functional, cell-based;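 further: parasite growth measured after 72 hours of compound exposure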
Bcl-2-like protein 10 = molecular target: T3, Bcl-2-like protein 10 (Homo sapiens, UniProt Q9HD36); assay: Bcl-B/TR3 peptide binding disruption – biochemical, fluorescence polarization, FITC-TR3 peptide, selectivity assay for Bfl-1 inhibitor project, primary screen (AID 748);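 further: fluorescence polarization from a fluorescein-labelled TR3 peptide binding purified Bcl-B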
T3 sequence (Q9HD36 whole entry): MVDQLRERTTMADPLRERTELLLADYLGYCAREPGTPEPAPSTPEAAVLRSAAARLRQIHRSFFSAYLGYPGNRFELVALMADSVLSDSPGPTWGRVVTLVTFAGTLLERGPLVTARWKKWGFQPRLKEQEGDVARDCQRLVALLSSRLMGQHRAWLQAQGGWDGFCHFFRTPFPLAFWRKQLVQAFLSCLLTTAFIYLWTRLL

[10] = blockade of melanocortin 4 receptor signaling – cell-based, plate reader, cherry pick, counter-screen for LGR2 antagonist project, dose response (AID 743444); format: functional;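 further: transfected HEK 293 cells stimulated with alpha-MSH peptide; potency of inhibitors of the alpha-MSH evoked signal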
[11] = blockers of bursicon-stimulated LGR2 cAMP reporter – cell-based, HEK293, CRE-luciferase reporter, cherry pick, set 2, dose response (AID 743343); format: functional;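 further: transfected cells were stimulated with diluted bursicon conditioned medium after compound addition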
[12] = A549 cell cytotoxicity, dose response, cytotoxicity control, plate reader, cherry-pick, antagonist series (AID 743412); format: functional, cell-based
[13] = toxicity toward HepG2 liver cells – cell-based, plate reader, cherry-pick, antagonist series, cytotoxicity control, dose response (AID 743416); format: functional
[14] = viability loss in HEK293 cells – cell-based, plate reader, cherry-picked samples, cytotoxicity control, dose response (AID 743446); format: functional
[15] = Luminescence-based cell-based high throughput dose response assay to identify activators of the DAF-12 from the parasite S. stercoralis (ssDAF-12).; format: functional
[16] = molecular target: T4, Oxysterols receptor LXR-beta (Homo sapiens, UniProt P55055); assay: LXR agonists, Gal4 luciferase reporter, dose response, counter-screen for ssDAF-12 agonist project, cell-based, luminescence, HEK293, S. stercoralis campaign (AID 720737); format: functional; conditions: read-out: IC50 (the source's name)
T4 sequence (P55055 whole entry): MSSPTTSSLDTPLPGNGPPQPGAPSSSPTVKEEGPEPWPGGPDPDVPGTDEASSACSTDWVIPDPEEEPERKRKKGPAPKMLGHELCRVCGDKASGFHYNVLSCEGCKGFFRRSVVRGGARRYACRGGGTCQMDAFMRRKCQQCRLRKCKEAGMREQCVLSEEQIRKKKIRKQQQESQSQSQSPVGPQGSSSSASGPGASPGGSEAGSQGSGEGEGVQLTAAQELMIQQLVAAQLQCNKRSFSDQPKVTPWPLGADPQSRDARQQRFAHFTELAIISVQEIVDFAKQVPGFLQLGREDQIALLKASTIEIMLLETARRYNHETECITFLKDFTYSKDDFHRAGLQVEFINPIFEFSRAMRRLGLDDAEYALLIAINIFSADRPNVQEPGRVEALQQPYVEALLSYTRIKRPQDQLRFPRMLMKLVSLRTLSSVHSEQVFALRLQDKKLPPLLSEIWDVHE

[17] = HGIII-sPLA2 enzyme inhibition potency – biochemical, QFRET, IC50, dose response (AID 743457);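 further: green fluorescence rise as the enzyme cleaves BODIPY PC-A2 in liposomes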

Sequence of Eukaryotic translation initiation factor 4E (P63073 whole entry): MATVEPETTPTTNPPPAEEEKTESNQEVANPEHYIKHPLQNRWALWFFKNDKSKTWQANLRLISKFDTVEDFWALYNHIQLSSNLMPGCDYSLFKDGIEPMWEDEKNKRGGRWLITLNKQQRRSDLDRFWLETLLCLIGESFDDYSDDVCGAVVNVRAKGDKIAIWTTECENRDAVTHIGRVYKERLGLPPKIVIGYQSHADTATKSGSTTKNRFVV
Sequence of Paired box protein Pax-8 (Q06710 whole entry): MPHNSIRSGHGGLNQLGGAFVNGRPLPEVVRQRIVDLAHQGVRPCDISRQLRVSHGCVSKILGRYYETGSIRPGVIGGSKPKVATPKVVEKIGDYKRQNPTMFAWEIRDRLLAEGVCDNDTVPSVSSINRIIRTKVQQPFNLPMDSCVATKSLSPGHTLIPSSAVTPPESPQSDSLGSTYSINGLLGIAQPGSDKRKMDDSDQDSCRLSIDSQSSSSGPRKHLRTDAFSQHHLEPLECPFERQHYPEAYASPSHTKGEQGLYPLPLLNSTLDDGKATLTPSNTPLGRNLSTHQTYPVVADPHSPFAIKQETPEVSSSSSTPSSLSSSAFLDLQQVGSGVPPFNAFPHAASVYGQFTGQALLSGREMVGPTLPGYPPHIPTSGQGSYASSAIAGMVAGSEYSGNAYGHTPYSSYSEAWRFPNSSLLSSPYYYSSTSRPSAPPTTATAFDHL

In the case of C[C@@H]1CN([C@@H](C)CO)C(=O)c2cc(C#CCc3ccccc3)cnc2O[C@H]1CN(C)CC1CCCC1, the AC50 [1] is reported as 1.31 µM (active) and the AC50 [2] is reported as 14.2 µM (active).

For Cc1cc(C)c(S(=O)(=O)NCC2CCC(C(=O)N3CCC4(CC3)OCCO4)CC2)c(C)c1 (configuration not stated), the IC50 (Protein Tat) was > 100 µM (active).

For CCN1/C(=C/C(C)=C/c2sc3ccccc3[n+]2CC)Sc2ccccc21, the AC50 [3] was 7.11 µM (active).

In the case of C[C@H]1CN([C@@H](C)CO)S(=O)(=O)c2ccc(-c3ccc(C#N)cc3)cc2O[C@@H]1CN(C)Cc1cccc(F)c1, the AC50 [4] is reported as > 60 µM (inactive) and the AC50 (Paired box protein Pax-8) is reported as 8.67 µM (active).

For O=c1cc(CCl)nc2sc3ccccc3n12, the IC50 [5] was 50 µM (inactive).

With C[C@@H]1CN([C@H](C)CO)C(=O)c2cccc(NC(=O)Nc3cccc4ccccc34)c2O[C@@H]1CN(C)C(=O)Nc1ccc(C(F)(F)F)cc1 the AC50 [6] was 7.71 µM (active), the AC50 [7] was 1.21 µM (active) and the AC50 [8] was 1.37 µM (active). The AC50 [1] was 1.59 µM (active) and the AC50 [9] was 1.15 µM (active).

For CCN(CC)CCCNc1cc(C(F)(F)F)c(C#N)c2nc3ccccc3n12, the AC50 [3] was > 20 µM (inactive).

With Cc1cc[n+]2c3c(cccc13)CCC2 the IC50 (Bcl-2-like protein 10) was 63.2 µM (inactive).

With N#C[C@@H]1[C@H](c2ccc(C#Cc3ccc(F)cc3)cc2)[C@@H](CO)N1C(=O)C1CCCC1 the AC50 [10] was 13.1 µM (active), the AC50 [11] was 15.8 µM (active) and the AC50 [12] was 19.1 µM (active). For the same compound, the AC50 [13] was 18.5 µM (active) and the AC50 [14] was 50.9 µM (active).

In the case of COc1cc(-c2nc3ccccc3c(=O)n2N)cc(OC)c1OC, the IC50 [15] is reported as > 67.5 µM (inactive) and the EC50 [16] is reported as > 67.5 µM (inactive).

In the case of C/C(=N\NC(=S)Nc1ccc(C)cc1)c1cc2ccccc2o1.CN(C)C=O, the IC50 [17] is reported as 31.8 µM (inactive).

From ChEMBL document CHEMBL1201862, “PubChem BioAssay data set” (2004)
